Measurements published in patent US12344610B2, “APOL1 inhibitors and methods of use” (Maze Therapeutics, Inc., priority 2022, dated 2025).

How the values were obtained:
Type in all cases: cell-based
[1] = test system: HEK293 clonal cell line overexpressing APOL1 G1; assay: APOL1 G1 HEK293 cell rescue assay (Example B3); settings: Homo sapiens, HEK293, HEK293 clonal line overexpressing APOL1 G1; geometric mean of at least 2 runs; † = single run; ¥ = concentration at 50% rescue estimated (no sigmoidal curve)
Summary of the method: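 HEK293 clonal line overexpressing APOL1 G1; EC50 is half-maximal reversal of APOL1-induced cell death. Values are the geometric mean of ≥2 runs on separate days, each run the average of duplicate wells. Where no sigmoidal curve could be fitted, the concentration giving 50% rescue was estimated.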

[2] = target: T1, APOL1 G2 (Homo sapiens, UniProt O14791, DEL388-389); assay: APOL1-mediated calcium transport (calcium influx) assay, HEK T-REx/GCaMP6f/APOL1 G2 K6.3 cells, FLIPR TETRA; settings: prevention of calcium influx; geometric mean of at least 2 assay runs; † = average of a technical replicate from a single assay run
T1 construct: expressed in transfected cells; host or cells: HEK293 T-REx clonal line stably expressing GCaMP6f (HEK T-REx/GCaMP6f/APOL1 G2 K6.3), doxycycline induced
T1 sequence (O14791 with tags, fused parts or gaps DEL388-389): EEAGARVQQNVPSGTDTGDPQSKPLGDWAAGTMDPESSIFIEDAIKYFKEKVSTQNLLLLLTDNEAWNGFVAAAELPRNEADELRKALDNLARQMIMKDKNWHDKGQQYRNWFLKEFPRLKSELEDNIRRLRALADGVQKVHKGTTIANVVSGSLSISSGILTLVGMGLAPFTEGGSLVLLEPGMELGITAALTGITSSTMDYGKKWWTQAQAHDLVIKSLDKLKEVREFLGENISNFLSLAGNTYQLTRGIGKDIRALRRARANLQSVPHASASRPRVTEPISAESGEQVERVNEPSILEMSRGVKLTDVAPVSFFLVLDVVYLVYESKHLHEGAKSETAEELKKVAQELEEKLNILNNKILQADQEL
Summary of the method: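 A HEK293 T-REx clone stably expressing GCaMP6f had APOL1 G2 induced with doxycycline (20 ng/mL solution added) for 6 h. Cells were then washed into Ca2+-free Tyrode's buffer (pH 7.4) and preincubated with compounds (duplicate 8-point) for 10 min at room temperature. Ca2+ injection to 5 mM final produced FLIPR GCaMP fluorescence, giving AC50 for influx inhibition (geometric mean, ≥2 runs).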

[3] = test system: HEK293 cells overexpressing APOL1 G2; assay: APOL1 G2 HEK293 cell rescue assay (reversal of cell death caused by overexpression of APOL1); settings: Homo sapiens, HEK293, HEK293 overexpressing APOL1 G2; geometric mean of at least 2 assay runs; † = single assay run
Summary of the method: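 EC50 is the half-maximal effective concentration for reversing cell death driven by APOL1 G2 overexpression in HEK293 cells. Reported as geometric mean of at least 2 runs on separate days, each run averaging duplicate wells per plate; some values from a single run.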

Compound	EC50 [1]	AC50 [2]	EC50 [3]
[2H]C([2H])([2H])N1C(=O)C2(CCN(CCOc3cnc4c(c3)CCC(=O)N4[C@H]3C[C@@H](O)C3)CC2)c2cc(Cl)ccc21 [Compound 423, 5-chloro-1-(^2H3)methyl-1′-[2-({7-oxo-8-[(cis)-3-hydroxycyclobutyl]-5,6,7,8-tetrahydro-1,8-naphthyridin-3-yl}oxy)ethyl]-1,2-dihydrospiro[indole-3,4′-piperidin]-2-one]	116 nM	284 nM	59.3 nM
[2H]C([2H])([2H])N1C(=O)C2(CCN(CCOc3cnc(C4(S(C)(=O)=O)CC4)nc3)CC2)c2cc(Cl)ccc21 [Compound 424, 5-chloro-1′-(2-{[2-(1-methanesulfonylcyclopropyl)pyrimidin-5-yl]oxy}ethyl)-1-(^2H3)methyl-1,2-dihydrospiro[indole-3,4′-piperidin]-2-one]	112 nM	895 nM	50.2 nM
[2H]C([2H])([2H])N1C(=O)C2(CCN(CCOc3cnc(C(C)S(C)(=O)=O)nc3)CC2)c2cc(Cl)ccc21 (stereo not drawn) [Compound 425, 5-chloro-1′-(2-{[2-(1-methanesulfonylethyl)pyrimidin-5-yl]oxy}ethyl)-1-(^2H3)methyl-1,2-dihydrospiro[indole-3,4′-piperidin]-2-one]	271 nM	1100 nM	90.6 nM
O=C1Nc2ccc(Cl)cc2C12CCN(CCOc1cnc(C3(O)COC3)nc1)CC2 [Compound 429, 5-chloro-1′-(2-{[2-(3-hydroxyoxetan-3-yl)pyrimidin-5-yl]oxy}ethyl)-1,2-dihydrospiro[indole-3,4′-piperidin]-2-one]	200 nM	435 nM	130 nM
O=C1Nc2ccc(Cl)cc2C12CCN(CCOc1cnc(C3(O)CCC3)nc1)CC2 [Compound 430, 5-chloro-1′-(2-{[2-(1-hydroxycyclobutyl)pyrimidin-5-yl]oxy}ethyl)-1,2-dihydrospiro[indole-3,4′-piperidin]-2-one]	123 nM	518 nM	72.9 nM
CC1(O)CN(c2ncc(OCCN3CCC4(CC3)C(=O)Nc3ccc(C#N)cc34)cc2C(F)(F)F)C1 [Compound 431, 1′-(2-{[6-(3-hydroxy-3-methylazetidin-1-yl)-5-(trifluoromethyl)pyridin-3-yl]oxy}ethyl)-2-oxo-1,2-dihydrospiro[indole-3,4′-piperidine]-5-carbonitrile]	37 nM	4870 nM	18.7 nM
CC(C)(CO)c1ncc(OCCN2CCC3(CC2)C(=O)Nc2ccc(C#N)cc23)cn1 [Compound 432, 1′-(2-{[2-(1-hydroxy-2-methylpropan-2-yl)pyrimidin-5-yl]oxy}ethyl)-2-oxo-1,2-dihydrospiro[indole-3,4′-piperidine]-5-carbonitrile]	288 nM	2560 nM	161 nM
C[C@]1(O)C[C@@H](n2cnc3cc(OCCN4CCC5(CC4)C(=O)Nc4ccc(Cl)cc45)cc(C(F)F)c32)C1 [Compound 445, 5-chloro-1′-(2-{[7-(difluoromethyl)-1-[(cis)-3-hydroxy-3-methylcyclobutyl]-1H-1,3-benzodiazol-5-yl]oxy}ethyl)-1,2-dihydrospiro[indole-3,4′-piperidin]-2-one]	29.4 nM	1110 nM	8.15 nM
C[C@]1(O)C[C@@H](n2cnc3cc(OCCN4CCC5(CC4)C(=O)Nc4ccc(C#N)cc45)cc(C(F)F)c32)C1 [Compound 446, 1′-(2-{[7-(difluoromethyl)-1-[(cis)-3-hydroxy-3-methylcyclobutyl]-1H-1,3-benzodiazol-5-yl]oxy}ethyl)-2-oxo-1,2-dihydrospiro[indole-3,4′-piperidine]-5-carbonitrile]	82.5 nM	1180 nM	33.2 nM
C[C@]1(O)C[C@@H](n2cnc3cc(OCCN4CCC5(CC4)C(=O)Nc4ccc(Cl)cc45)cc(OC(F)F)c32)C1 [Compound 447, 5-chloro-1′-(2-{[7-(difluoromethoxy)-1-[(cis)-3-hydroxy-3-methylcyclobutyl]-1H-1,3-benzodiazol-5-yl]oxy}ethyl)-1,2-dihydrospiro[indole-3,4′-piperidin]-2-one]	64.3 nM	1130 nM	34.1 nM
C[C@]1(O)C[C@@H](n2cnc3cc(OCCN4CCC5(CC4)C(=O)Nc4ccc(C#N)cc45)cc(OC(F)F)c32)C1 [Compound 448, 1′-(2-{[7-(difluoromethoxy)-1-[(cis)-3-hydroxy-3-methylcyclobutyl]-1H-1,3-benzodiazol-5-yl]oxy}ethyl)-2-oxo-1,2-dihydrospiro[indole-3,4′-piperidine]-5-carbonitrile]	687 nM	1140 nM	112 nM
CC(C)(O)c1ncc(OCCN2CCC3(CC2)C(=O)Nc2c(I)cc(Cl)cc23)cn1 [Compound 449, 5-chloro-1′-(2-((2-(2-hydroxypropan-2-yl)pyrimidin-5-yl)oxy)ethyl)-7-iodospiro[indoline-3,4′-piperidin]-2-one]	247 nM	609 nM	102 nM
Cc1nc2cc(OCCN3CCC4(CC3)C(=O)Nc3ccc(Cl)cc34)cnc2n1[C@H]1C[C@@](C)(O)C1 [Compound 451, 5-chloro-1′-[2-({2-methyl-3-[(cis)-3-hydroxy-3-methylcyclobutyl]-3H-imidazo[4,5-b]pyridin-6-yl}oxy)ethyl]-1,2-dihydrospiro[indole-3,4′-piperidin]-2-one]	115 nM	459 nM	32.1 nM
C[C@]1(O)C[C@@H](N2C(=O)NCc3cc(OCCN4CCC5(CC4)C(=O)Nc4ccc(Cl)cc45)cc(C(F)(F)F)c32)C1 [Compound 456, 5-chloro-1′-[2-({2-oxo-1-[(cis)-3-hydroxy-3-methylcyclobutyl]-8-(trifluoromethyl)-1,2,3,4-tetrahydroquinazolin-6-yl}oxy)ethyl]-1,2-dihydrospiro[indole-3,4′-piperidin]-2-one]	98.2 nM	1010 nM	28.2 nM
CC1(C)OC(=O)c2cc(OCCN3CCC4(CC3)C(=O)Nc3ccc(Cl)cc34)cnc21 [Compound 458, 5-chloro-1′-[2-({7,7-dimethyl-5-oxo-5H,7H-furo[3,4-b]pyridin-3-yl}oxy)ethyl]-1,2-dihydrospiro[indole-3,4′-piperidin]-2-one]	75.7 nM	528 nM	16.5 nM
[2H]C([2H])(Oc1cnc2c(c1)CCC(=O)N2[C@H]1C[C@](O)(C([2H])([2H])[2H])C1)C([2H])([2H])N1CCC2(CC1)C(=O)Nc1ccc(Cl)cc12 [Compound 462, 5-chloro-1′-[2-({7-oxo-8-[(cis)-3-hydroxy-3-(^2H3)methylcyclobutyl]-5,6,7,8-tetrahydro-1,8-naphthyridin-3-yl}oxy)(1,1,2,2-^2H4)ethyl]-1,2-dihydrospiro[indole-3,4′-piperidin]-2-one]	53.4 nM	943 nM	17.8 nM
[2H]C([2H])(Oc1cc(C(F)(F)F)c2c(c1)ncn2[C@H]1C[C@@](C)(O)C1)C([2H])([2H])N1CCC2(CC1)C(=O)Nc1ccc(Cl)cc12 [Compound 463, 5-chloro-1′-[2-({1-[(cis)-3-hydroxy-3-methylcyclobutyl]-7-(trifluoromethyl)-1H-1,3-benzodiazol-5-yl}oxy)(1,1,2,2-^2H4)ethyl]-1,2-dihydrospiro[indole-3,4′-piperidin]-2-one]	13.2 nM	2840 nM	5.84 nM
